“Also recorded” adds a separate entry of the source.
Key:
[1] = system: bacterial NA (BNA) from Clostridium perfringens; type: biochemical; details: antiviral premixed with bacterial NA, then SG1
[2] = system: membrane free soluble N1 NA (strain H5N1 A/Anhui/1/2005); type: biochemical, influenza virus; details: 10 ng antiviral premixed 30 min before SG1
[3] = system: H3N2 A/Aichi/2/1968; experiment: Electrochemical assay, 3 electrode system: SG1 cleavage and drug susceptibility; type: biochemical, Influenza A virus; details: 10 ng antiviral premixed 30 min before SG1
[4] = system: N2 NA (strain A/Babol/36/2005); experiment: as above; type: biochemical, influenza virus; details: 10 ng antiviral premixed 30 min before SG1
[5] = system: H3N2 A/HongKong/8/68; experiment: as above; type: biochemical, Influenza A virus; details: 10 ng antiviral premixed 30 min before SG1
[6] = system: H1N1 A/Brisbane/59/2007; experiment: as above; type: biochemical, Influenza A virus; details: 10 ng antiviral premixed 30 min before SG1
[7] = system: β-Glucuronidase; details: substrate incubated with β-Glucuronidase
[8] = system: β-Galactosidase; details: substrate incubated with β-Galactosidase
[9] = system: α-L-Fucosidase; type: biochemical; details: substrate incubated with α-L-Fucosidase
[10] = system: α-Mannosidase; type: biochemical; details: substrate incubated with α-Mannosidase
[11] = system: β-N-Acetylglucosaminidase; type: biochemical; details: substrate incubated with β-N-Acetylglucosaminidase
[12] = system: H1N1 virus; experiment: Hydrolysis of sialylglucose by intact influenza virus, amperometric glucose measurement; type: biochemical; details: for current compared with glucose standard solution: H1N1 virus
[13] = system: H3N2 virus; experiment: as above; type: biochemical; details: H3N2 virus overnight
[14] = system: H3N2 virus; experiment: Hydrolysis of the probe by intact influenza virus followed by mass spectrum; type: biochemical; details: pH 5.68, 37° C.
[15] = system: influenza NA; experiment: Hydrolysis of the probe by influenza NA followed by mass spectroscopy; type: biochemical, influenza virus
[16] = system: H1N1 virus; experiment: Hydrolysis of the probe by intact influenza virus followed by mass spectrum; type: biochemical; details: pH 5.68, 37° C.
[17] = system: H3N2 NA; type: biochemical, influenza virus; details: H3N2 NA overnight
[18] = system: H5N1 NA; type: biochemical, influenza virus; details: H5N1 NA overnight
[19] = H1N1 virus 1 h, 1 mM substrate, pH 5.68, 37° C.

SMILES: CC(=O)N[C@H]1[C@H]([C@H](O)[C@H](O)CO)OC(C(=O)O)=C[C@@H]1N=C(N)N [Zanamivir]
- inhibition of bacterial NA (glucose release from SG1) by antiviral [1]: NA still cleaved SG1; also recorded: glucose was released
- inhibition of NA (glucose release from SG1) by antiviral [2]: completely inhibited
- inhibition of NA (glucose release from SG1) by antiviral [3]: completely inhibited; also recorded: Glucose was not released
- inhibition of NA (glucose release from SG1) by antiviral [4]: completely inhibited
- inhibition of NA (glucose release from SG1) by antiviral [5]: completely inhibited; also recorded: Glucose was not released
- inhibition of NA (glucose release from SG1) by antiviral [6]: completely inhibited; also recorded: Glucose was not released

SMILES: OCC1O[C@@H](OCc2ccc(O[C@@H]3OC(CO)[C@H](O)[C@H](O)C3O)cc2)C(O)[C@@H](O)[C@@H]1O (some centres unmarked) [Substrate 21]
- i, value of electrochemical assay [7]: 10.4 ± 1.3 10^−8 A
- i, value of electrochemical assay [8]: 77.9 ± 7.3 10^−8 A

SMILES: CC1O[C@@H](Oc2ccc(CO[C@@H]3OC(CO)[C@@H](O)[C@H](O)C3O)cc2)C(O)[C@@H](O)[C@@H]1O (some centres unmarked) [Substrate 26]
- i, value of electrochemical assay [9]: 25.2 ± 2.9 10^−8 A

SMILES: O=C(O)C1O[C@@H](Oc2ccc(CO[C@@H]3OC(CO)[C@@H](O)[C@H](O)C3O)cc2)C(O)[C@@H](O)[C@@H]1O (stereo partly drawn) [Substrate 22, 1-(4-Hydroxymethylphenyl)-β-D-glucopyronuronic acid-1-α/β-D-glucopyranoside]
- i, value of electrochemical assay [7]: 65.1 ± 4.6 10^−8 A
- i, value of electrochemical assay [9]: 9.7 ± 3.5 10^−8 A
- i, value of electrochemical assay [10]: 12.3 ± 1.2 10^−8 A

SMILES: CC(=O)NC1[C@@H](Oc2ccc(CO[C@@H]3OC(CO)[C@@H](O)[C@H](O)C3O)cc2)OC(CO)[C@@H](O)[C@@H]1O (some centres unmarked) [Substrate 24]
- i, value of electrochemical assay [11]: 11.1 ± 2.3 10^−8 A

SMILES: CC(=O)NC1[C@H](Oc2ccc(CO[C@@H]3OC(CO)[C@@H](O)[C@H](O)C3O)cc2)OC(CO)[C@@H](O)[C@@H]1O (some centres unmarked) [Substrate 23]
- i, value of electrochemical assay [11]: 28.5 ± 4.0 10^−8 A

SMILES: CC(=O)N[C@H]1[C@H]([C@H](O)[C@H](O)CO)O[C@@](OC[C@H]2O[C@H](O)[C@H](O)[C@@H](O)[C@@H]2O)(C(=O)O)C[C@@H]1O [sialylglucose, 5-acetamido-3,5-dideoxy-D-glycero-α-D-galacto-non-2-ulopyranosylonate-(2→6) α-D-glucopyranoside]
- Calculated Glucose Concentration [12, 19]: 116.2 µM
- Current [12, 19]: 1.262E−07 A
- Calculated Glucose Concentration ([12]; H1N1 virus 5 h): 126.6 µM
- Current ([12]; H1N1 virus 5 h): 1.366E−07 A
- Calculated Glucose Concentration ([12]; H1N1 virus overnight): 50.66 µM
- Current ([12]; H1N1 virus overnight): 6.066E−08 A
- current compared with 1 h and 5 h samples ([12]; H1N1 virus overnight): significantly lower current
- current compared with glucose standard solution ([12]; hydrolysis stopped at 1 h): ~100 µM
- current compared with glucose standard solution ([12]; hydrolysis stopped at 5 h): ~100 µM
- Calculated Glucose Concentration [13]: 76.09 µM
- Current [13]: 8.609E−08 A
- hydrolysis by intact influenza virus (mass spectrum) [14]: complete hydrolysis
- hydrolysis of the probe by NA (mass spectrum) ([15]; pH 5.68, 37° C., overnight): substrate peak could no longer be observed
- hydrolysis of the probe by NA (mass spectrum) ([15]; pH 7.40, room temperature, overnight incubation): incomplete hydrolysis
- hydrolysis by intact influenza virus (mass spectrum) [16]: complete hydrolysis
- Calculated Glucose Concentration [17]: 102.3 µM
- Current [17]: 1.123E−07 A
- Calculated Glucose Concentration [18]: 66.47 µM
- Current [18]: 7.647E−08 A

SMILES: CCOC(=O)C1=C[C@@H](OC(CC)CC)[C@H](NC(C)=O)[C@@H](N)C1 [Oseltamivir]
- inhibition of NA (glucose release from SG1) by antiviral [2]: completely inhibited
- inhibition of NA (glucose release from SG1) by antiviral [3]: completely inhibited; also recorded: Glucose was not released
- inhibition of NA (glucose release from SG1) by antiviral [4]: completely inhibited
- inhibition of NA (glucose release from SG1) by antiviral [5]: completely inhibited; also recorded: Glucose was not released
- inhibition of NA (glucose release from SG1) by antiviral [6]: completely inhibited; also recorded: Glucose was not released

SMILES: CC1O[C@@H](OCC2OC(O)C(O)[C@@H](O)[C@@H]2O)C(O)[C@@H](O)[C@@H]1O (some centres unmarked) [Substrate 25]
- i, value of electrochemical assay [9]: 44.5 ± 2.9 10^−8 A

SMILES: OCC1O[C@@H](OCc2ccc(O[C@H]3OC(CO)[C@@H](O)[C@H](O)C3O)cc2)C(O)[C@@H](O)[C@@H]1O (some centres unmarked) [Substrate 20]
- i, value of electrochemical assay [8]: 10.2 ± 0.6 10^−8 A
- i, value of electrochemical assay [10]: 81.0 ± 1.8 10^−8 A

Reference: patent US10408783B2, “Electrochemical methods and compounds for the detection of enzymes” (GEORGIA STATE UNIVERSITY RESEARCH FOUNDATION, INC., priority 2014, dated 2019)
